Experimental data reported in patent publication US7294485B2, “Rat calcium channel subunits and related probes, cell lines and methods” (Neuromed Pharmaceuticals Ltd., priority 2003, dated 2007).

How the values were obtained:
α2δ-3 subunit = α2δ-3 subunit (Homo sapiens, UniProt Q8IZS8); conditions: Marais et al. 2001; cited from earlier work
α2δ-2 subunit = α2δ-2 subunit (Homo sapiens, UniProt Q9NY47); conditions: Marais et al. 2001; cited from earlier work
[1] = tested on: α2δ-3 expression in cultured rat atrial myocytes; conditions: Chu 2003; cited from earlier work
[2] = tested on: rat α1B+β1b Ca2+ channel (N-type calcium channel); experiment: Whole-cell patch clamp current density of rat α1B+β1b channels with coexpressed α2δ-2 in transfected HEK 293 cells; format: cell-based
Procedure: Human embryonic kidney cells, HEK 293 (ATCC# CRL 1573) or HEK 293 tsA 201, were grown in standard DMEM medium supplemented with 4 mM glutamine and 10% fetal bovine serum. The rat α2δ-2 construct was transfected into HEK 293 or HEK 293 tsA 201 cells with equimolar concentration of the subunits α1B (N-type calcium channel) and β1b, using lipofectamine (Gibco/Invitrogen) according to the manufacturer's instructions. pEGFP was included in the transfected cDNA at 3-5 times less the molar concentration to detect transfected cells and to determine the efficiency of transfection. Transfected cells were incubated at 37° C., 5% CO2, for 6-24 hours and then placed at 29° C., 5% CO2.
After an incubation period of 24 to 72 hours, the culture medium was removed and replaced with an external recording solution containing (in mM) 5 BaCl, 129 CsCl, 1 MgCl2, 10 HEPES, 10 glucose, pH 7.4 with CsOH. Whole-cell patch clamp recordings were made with an Axopatch 200B amplifier (Axon Instruments, USA). […] Signals were acquired at 2.02 kHz and analyzed offline using pClamp 8.2 (Axon Instruments, USA) and Origin (OriginLab Corporation, USA) software. […]
Mean current density was recorded for 4 cells transfected with rat α1B+β1b only and for 7 cells that were also cotransfected with rat brain α2δ-2 subunit. […]

Chain of α2δ-3 subunit (Q8IZS8 29-1091): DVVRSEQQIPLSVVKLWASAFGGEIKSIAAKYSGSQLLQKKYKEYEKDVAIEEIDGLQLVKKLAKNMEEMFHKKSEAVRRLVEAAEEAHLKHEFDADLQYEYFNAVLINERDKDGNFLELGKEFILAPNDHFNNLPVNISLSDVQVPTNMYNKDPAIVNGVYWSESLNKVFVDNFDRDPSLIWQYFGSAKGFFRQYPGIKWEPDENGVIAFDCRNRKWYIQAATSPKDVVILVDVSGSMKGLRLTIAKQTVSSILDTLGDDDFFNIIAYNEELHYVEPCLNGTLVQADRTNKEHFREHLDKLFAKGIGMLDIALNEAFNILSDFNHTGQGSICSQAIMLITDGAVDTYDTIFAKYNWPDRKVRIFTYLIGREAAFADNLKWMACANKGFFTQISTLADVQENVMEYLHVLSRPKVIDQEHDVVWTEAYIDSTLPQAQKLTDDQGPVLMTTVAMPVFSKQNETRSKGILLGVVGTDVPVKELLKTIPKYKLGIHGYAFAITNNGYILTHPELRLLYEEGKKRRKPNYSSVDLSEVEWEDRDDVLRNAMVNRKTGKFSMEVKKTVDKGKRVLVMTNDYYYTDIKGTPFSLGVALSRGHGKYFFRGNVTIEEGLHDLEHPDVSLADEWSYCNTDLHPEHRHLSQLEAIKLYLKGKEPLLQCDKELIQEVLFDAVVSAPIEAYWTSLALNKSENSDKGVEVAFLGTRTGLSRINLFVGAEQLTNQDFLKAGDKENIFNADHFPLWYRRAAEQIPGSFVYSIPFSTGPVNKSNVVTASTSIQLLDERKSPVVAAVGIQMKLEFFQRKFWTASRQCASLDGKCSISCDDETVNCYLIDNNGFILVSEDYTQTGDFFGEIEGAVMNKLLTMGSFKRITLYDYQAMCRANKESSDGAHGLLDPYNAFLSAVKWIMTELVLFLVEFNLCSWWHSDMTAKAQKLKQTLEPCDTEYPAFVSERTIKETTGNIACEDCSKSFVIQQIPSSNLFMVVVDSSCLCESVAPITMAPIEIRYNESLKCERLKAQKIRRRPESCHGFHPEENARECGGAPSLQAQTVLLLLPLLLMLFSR
Chain of α2δ-2 subunit (Q9NY47 19-1150): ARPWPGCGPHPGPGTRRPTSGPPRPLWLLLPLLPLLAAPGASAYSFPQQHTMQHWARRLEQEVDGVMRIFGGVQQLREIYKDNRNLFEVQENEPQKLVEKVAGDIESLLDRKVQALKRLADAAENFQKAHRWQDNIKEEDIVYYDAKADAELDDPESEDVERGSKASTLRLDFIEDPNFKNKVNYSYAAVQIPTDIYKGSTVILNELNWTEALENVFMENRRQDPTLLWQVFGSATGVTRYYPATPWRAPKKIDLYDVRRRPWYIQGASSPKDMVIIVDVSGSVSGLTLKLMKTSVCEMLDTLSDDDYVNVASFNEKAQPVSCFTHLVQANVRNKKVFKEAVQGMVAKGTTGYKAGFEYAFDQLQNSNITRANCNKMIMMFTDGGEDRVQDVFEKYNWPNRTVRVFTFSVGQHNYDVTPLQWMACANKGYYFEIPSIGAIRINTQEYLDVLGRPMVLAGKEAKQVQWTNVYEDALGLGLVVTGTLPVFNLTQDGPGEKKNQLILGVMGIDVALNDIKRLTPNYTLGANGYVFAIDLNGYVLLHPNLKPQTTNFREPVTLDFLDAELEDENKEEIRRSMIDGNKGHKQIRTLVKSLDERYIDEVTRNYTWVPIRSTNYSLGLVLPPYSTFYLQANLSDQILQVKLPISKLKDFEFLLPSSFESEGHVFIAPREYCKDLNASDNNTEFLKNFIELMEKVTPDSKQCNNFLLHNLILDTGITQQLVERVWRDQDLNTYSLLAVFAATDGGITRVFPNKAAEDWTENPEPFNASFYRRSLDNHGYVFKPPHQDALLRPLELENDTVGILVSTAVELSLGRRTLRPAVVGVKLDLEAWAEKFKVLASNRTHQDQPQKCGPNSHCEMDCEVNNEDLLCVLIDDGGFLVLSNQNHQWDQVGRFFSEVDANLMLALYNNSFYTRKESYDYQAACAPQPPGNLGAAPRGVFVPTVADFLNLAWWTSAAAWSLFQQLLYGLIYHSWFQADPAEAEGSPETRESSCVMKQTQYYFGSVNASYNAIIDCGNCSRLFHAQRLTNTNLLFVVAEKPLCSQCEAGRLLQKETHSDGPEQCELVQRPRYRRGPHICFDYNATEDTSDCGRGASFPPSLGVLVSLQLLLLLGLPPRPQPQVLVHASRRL

## NCC1(CC(=O)O)CCCCC1 [gabapentin]
α2δ-3 subunit
  binding to α2δ-3 subunit: not
α2δ-2 subunit
  binding to α2δ-2 subunit: binds

## IGF-1: IGF-1, reported to stimulate α2δ-3 expression in cultured rat atrial myocytes
[1]
  effect on α2δ-3 expression: stimulates

B1: rat brain α2δ-2 subunit: α2δ-2 calcium channel subunit present in rat brain, SEQ. ID. NO:3, 1,150 amino acids, expressed from cDNA (protein, listed as Rattus norvegicus)
chain: MAVPARTCGASWPGPVRTARPWPGRGPRPCPDPRGPASGPARPLLLLLPPLLLLPLLTAPGASAYSFPQQHTMQHWARRLEQEIDGVMRIFGGVQQLREIYKDNRNLFDVQENEPQKLVEKVAGDIESLLDRKVQALKRLADAAENFQKAHRWQDNIKEEDIMYYDAKADAELDDPESEDMERGSKTSALRLDFIEEPNFKNKVNYSYTAVQIPTDIYKGSTVILNELNWTEALENVFIENRRQDPTLLWQVFGSATGVTRYYPATPWRAPKKIDLYDVRRRPWYIQGASSPKDMVIIVDVSGSVSGLTLKLMKTSVCEMLDTLSDDDYVNVASFNEKAQPVSCFTHLVQANVRNKKVFKEAVQGMVAKGTTGYKAGFEYAFDQLQNSNITRANCNKMIMMFTDGGEDRVQDVFEKYNWPNRTVRVFTFSVGQHNYDVTPLQWMACTNKGYYFEIPSIGAIRINTQEYLDVLGRPMVLAGKDAKQVQWTNVYEDALGLGLVVTGTLPVFNLTQDGPGEKKNQLILGVMGIDVALNDIKRLTPNYTLGANGYVFAIDLNGYVLLHPNLKPQTTNFREPVTLDFLDAELEDENKEEIRRSMIDEDKGHKQIRTLVKSLDERYIDEVIRNYTWVPIRSTNYSLGLVLPPYSTYYLQANLSDQILQVKYFEFLLPSSFESEGHVFIAPREYCKDLNASDNNTEFLKNFIELMEKVTPDSKQCNNFLLHNLILDTGITQQLVERVWRDQDLNTYSLLAVFAATDGAVTRVFPNKAAEDWTENPEPFNASFYRRSLDNRGYIFKPPHQDSLLRPLELENDTVGVLVSTAVELSLGRRTLRPAVVGVKLDLEAWAEKFKVLASNRTHQDQPQKQCGPSSHCEMDCEVNNEDLLCVLIDDGGFLVLSNQNHQWDQVGRFFSEVDANLMLALYNNSFYTRKESYDYQAACAPQPPGNLGAAPRGVFVPTIADFLNLAWWTSAAAWSLFQQLLYGLIYHSWFQADPAEAEGSPETRESSCVMKQTQYYFGSVNASYNAIIDCGNCSRLFHAQRLTNTNLLFVVAEKPLCSQCEVGRLLQKETHCPADGPEQCELVQRPRYRRGPHICFDYNATEDTSDCGRGTSFPPSLGVLVSLQLLLLLGLPPRPQPQIHSFAASRRL
[2]; rat α1B+β1b coexpressed with rat brain α2δ-2 in HEK 293 cells, test potential +20 mV from holding −80 mV, 7 cells, mean±S.E.M, without α2δ-2: −7.2±2.3
  mean current density (Ipeak/cell capacitance): −30.0±4.1 pA/pF
[2]; with versus without coexpressed α2δ-2, P=0.01
  increase of rat α1B+β1b current density: ~4 fold
